± gives the uncertainty stated by the source.
Experiment: xn = mol fraction of the nth substance listed

CCCC[n+]1ccn(C)c1.O=[N+]([O-])[O-] + CCCCCCO
viscosity [mPa·s], 100 kPa
Details | 293.15 K | 303.15 K | 313.15 K | 323.15 K
x1 = 0.0811 | 6.41 ± 0.51 | 4.47 ± 0.36 | 3.24 ± 0.26 | 2.45 ± 0.2
x1 = 0.1741 | 7.98 ± 0.64 | 5.21 ± 0.42 | 3.72 ± 0.3 | 2.75 ± 0.22
x1 = 0.2418 | 9.59 ± 0.77 | 6.02 ± 0.48 | 4.21 ± 0.34 | 3.02 ± 0.24
x1 = 0.3587 | 13.3 ± 1.1 | 8.24 ± 0.66 | 5.33 ± 0.43 | 3.63 ± 0.29
x1 = 0.4426 | 17.5 ± 1.4 | 10.69 ± 0.86 | 6.48 ± 0.52 | 4.22 ± 0.34
x1 = 0.5532 | 26.6 ± 2.1 | 15.4 ± 1.2 | 8.94 ± 0.72 | 5.49 ± 0.44
x1 = 0.6538 | 40.2 ± 3.2 | 23 ± 1.9 | 12.8 ± 1 | 7.56 ± 0.61
x1 = 0.7414 | 60.7 ± 4.9 | 33.8 ± 2.7 | 18.9 ± 1.5 | 10.83 ± 0.88
x1 = 0.8519 | 103.2 ± 8.4 | 58.4 ± 4.7 | 33.4 ± 2.7 | 18.5 ± 1.5
x1 = 0.9367 | 162 ± 13 | 90.8 ± 7.4 | 53.2 ± 4.3 | 30.6 ± 2.5
x1 = 1 | 224 ± 18 | 125 ± 10 | 75.1 ± 6.1 | 45.2 ± 3.7

C[NH+](C)C.O=S(=O)([N-]S(=O)(=O)C(F)(F)F)C(F)(F)F + CC#N
101 kPa
Details | electrical conductivity [S/m]
298.15 K, x2 = 0.66 | 4.82 ± 0.19
303.15 K, x2 = 0.86 | 6.87 ± 0.28

CC[n+]1ccn(CCOC)c1.N#C[S-] + CCO
100 kPa
Details | viscosity [mPa·s]
293.15 K, x1 = 0.1 | 2.15 ± 0.12
293.15 K, x1 = 0.3995 | 8.78 ± 0.49
293.15 K, x1 = 0.6 | 20 ± 1.1
293.15 K, x1 = 0.797 | 42.3 ± 2.4
298.15 K, x1 = 0.3002 | 4.94 ± 0.28
303.15 K, x1 = 0.3002 | 4.39 ± 0.25
303.15 K, x1 = 0.8964 | 35.9 ± 2
303.15 K, x1 = 1 | 44.3 ± 2.4
308.15 K, x1 = 0.1999 | 2.58 ± 0.14
308.15 K, x1 = 0.7 | 16.96 ± 0.94
308.15 K, x1 = 0.797 | 23.4 ± 1.3
308.15 K, x1 = 0.8964 | 29.6 ± 1.6
308.15 K, x1 = 1 | 36 ± 2
313.15 K, x1 = 0.3995 | 5.28 ± 0.29
313.15 K, x1 = 0.797 | 19.8 ± 1.1
318.15 K, x1 = 0.1999 | 2.14 ± 0.12

C[N+](C)(C)CCO.O=C([O-])[C@@H]1CCCN1 + O
viscosity [mPa·s], 100 kPa
Details | x1 = 0.01436 | x1 = 0.02022 | x1 = 0.03417
308.15 K | 1.18 ± 0.04 | 1.23 ± 0.04 | –
338.15 K | – | – | 1.23 ± 0.04

C1CC[NH2+]C1.O=[N+]([O-])[O-] + CC1COC(=O)O1
100 kPa
Details | electrical conductivity [S/m] | viscosity [mPa·s]
283.15 K, x2 = 0.38 | – | 23
298.15 K, x2 = 0.8865 | 0.99 ± 0.15 | –
298.15 K, x2 = 0.8938 | 0.93 ± 0.15 | –
313.15 K, x2 = 0 | – | 21
323.15 K, x2 = 0.5 | – | 6.1
333.15 K, x2 = 0.7 | – | 3.1
333.15 K, x2 = 0.78 | – | 2.6
343.15 K, x2 = 0.38 | – | 5.2
343.15 K, x2 = 0.6 | – | 3.4
343.15 K, x2 = 0.7 | – | 2.7
353.15 K, x2 = 0 | – | 9.3
353.15 K, x2 = 0.6 | – | 2.9
353.15 K, x2 = 0.7 | – | 2.3

CCCCCC[n+]1ccn(C)c1.O=[N+]([O-])[O-] + CCCCCCCO
Details | viscosity [mPa·s]
293.15 K, 100 kPa, x1 = 0.4392 | 100.5 ± 8.2

CCCC[N+](CCCC)(CCCC)CCCC.O=S(=O)([O-])O + O
viscosity [mPa·s], 101 kPa
Details | x1 = 9.009e-05 | x1 = 0.0001802 | x1 = 0.0002702 | x1 = 0.0003603
298.15 K | 0.894 ± 0.008 | 0.896 ± 0.008 | 0.899 ± 0.008 | 0.901 ± 0.008
308.15 K | 0.723 ± 0.007 | 0.726 ± 0.007 | 0.728 ± 0.007 | 0.73 ± 0.007
318.15 K | 0.602 ± 0.006 | 0.603 ± 0.006 | 0.605 ± 0.006 | 0.608 ± 0.006

CCCCCn1cc[n+](C)c1.O=S(=O)([N-]S(=O)(=O)C(F)(F)F)C(F)(F)F + O
100 kPa, x2 = 0.2211
Details | viscosity [mPa·s]
313.15 K | 22.15 ± 0.19
318.15 K | 18.86 ± 0.16

COCCOC + CCCC[n+]1ccn(C)c1.O=S(=O)([N-]S(=O)(=O)C(F)(F)F)C(F)(F)F
Details | electrical conductivity [S/m]
294.5 K, 100 kPa, x2 = 0.02332 | 0.62 ± 0.06

CC(O)C(=O)[O-].CCC[N+]1(C)CCN(C)CC1 + CC#N
298 K, 101 kPa
Details | electrical conductivity [S/m]
x2 = 0.824 | 1.63 ± 0.03
x2 = 0.848 | 1.79 ± 0.04
x2 = 0.879 | 1.94 ± 0.04

CCCC[n+]1ccn(C)c1.O=[N+]([O-])[O-] + CC(C)O
100 kPa
Details | viscosity [mPa·s]
293.15 K, x1 = 0.1596 | 6.9 ± 1.4
293.15 K, x1 = 0.6506 | 53 ± 11
293.15 K, x1 = 0.7413 | 70 ± 14
298.15 K, x1 = 0.1596 | 6 ± 1.2
298.15 K, x1 = 0.2405 | 9.3 ± 1.9
298.15 K, x1 = 0.7413 | 56 ± 11
298.15 K, x1 = 0.8515 | 82 ± 16
303.15 K, x1 = 0.1596 | 5.2 ± 1
303.15 K, x1 = 0.8515 | 63 ± 13
303.15 K, x1 = 0.9396 | 90 ± 18
308.15 K, x1 = 0.2405 | 6.6 ± 1.3
308.15 K, x1 = 0.8515 | 51 ± 10
308.15 K, x1 = 0.9396 | 72 ± 15
308.15 K, x1 = 1 | 97 ± 19
313.15 K, x1 = 0.3495 | 9 ± 1.8
313.15 K, x1 = 0.9396 | 59 ± 12
313.15 K, x1 = 1 | 75 ± 15
318.15 K, x1 = 0.2405 | 5.2 ± 1
318.15 K, x1 = 0.3495 | 7.9 ± 1.6
318.15 K, x1 = 1 | 56 ± 11
323.15 K, x1 = 0.3495 | 7.2 ± 1.4

NCCOCCO + O + CCCC[n+]1ccn(C)c1.O=S(=O)([O-])C(F)(F)F
viscosity [mPa·s], 101 kPa
Details | 293.15 K | 298.15 K | 303.15 K | 308.15 K | 313.15 K | 318.15 K | 323.15 K | 328.15 K | 333.15 K
x1 = 0.182, x2 = 0.8049 | 11.31 ± 0.21 | 9.2 ± 0.17 | 7.59 ± 0.15 | 6.34 ± 0.12 | 5.37 ± 0.1 | 4.581 ± 0.085 | 3.959 ± 0.072 | 3.457 ± 0.061 | 3.052 ± 0.038
x1 = 0.2233, x2 = 0.7322 | 15.97 ± 0.2 | 12.84 ± 0.16 | 10.48 ± 0.13 | 8.66 ± 0.11 | 7.252 ± 0.092 | 6.139 ± 0.078 | 5.248 ± 0.067 | 4.534 ± 0.057 | 3.956 ± 0.051
x1 = 0.4053, x2 = 0.4752 | 28.79 ± 0.4 | 22.55 ± 0.31 | 17.99 ± 0.25 | 14.6 ± 0.2 | 12.01 ± 0.17 | 10.05 ± 0.14 | 8.52 ± 0.12 | 7.25 ± 0.1 | 6.179 ± 0.086

[I-].[Li+] + CC[n+]1ccn(C)c1.O=S(=O)([N-]S(=O)(=O)C(F)(F)F)C(F)(F)F
electrical conductivity [S/m], 101 kPa
Details | x2 = 0.8099 | x2 = 0.8475 | x2 = 0.8826 | x2 = 0.9207 | x2 = 0.9587
288.15 K | – | 0.225 ± 0.023 | 0.294 ± 0.03 | 0.385 ± 0.039 | 0.497 ± 0.05
298.15 K | 0.286 ± 0.029 | 0.376 ± 0.038 | 0.473 ± 0.048 | 0.602 ± 0.06 | 0.744 ± 0.075
333.15 K | 1.06 ± 0.11 | 1.25 ± 0.12 | 1.43 ± 0.14 | 1.66 ± 0.17 | 1.94 ± 0.19

From the CheMixHub ionic liquid set
